Data on 4 compounds can be found in patent US9724348B2, “Crystalline forms” (VM Therapeutics LLC, priority 2013, dated 2017).

In data set [1] the test system is CCI rats. Kind of data set: Chronic Constriction Injury (CCI) model of neuropathic pain in rat, von Frey paw withdrawal threshold. Type of data set: in vivo. The text has this: Chronic Constriction Injury (CCI) Model of Neuropathic Pain in Rat. The CCI model is one of the most commonly used mono-neuropathic pain model firstly described in details by Bennett and Xie (Bennett G J, Xie Y K. Pain. 1988; 33(1):87-107). It mimics important clinical chronic pain symptoms such as mechanical allodynia and thermal hyperalgesia. Chronic constriction injury of the sciatic nerve was produced by tying four loose ligatures around the left sciatic nerve according to the method of Bennett and Xie. […] Calibrated von Frey filaments were used to determine the lowest mechanical (tactile) threshold required to evoke a brisk paw withdrawal reflex in the rat hindpaws. Rats were allowed to acclimatize in wire mesh cages for 15-20 min prior to von Frey testing. Assessment of paw withdrawal thresholds (PWTs) using von Frey filaments was undertaken prior to CCI-surgery (pre-surgery baseline on day 0). Before the drug dosing on day 14, the pre-dose baseline was recorded for each rat. […] Drug-naïve CCI-rats (n=4-6 per group) were used. The oral (PO) gavage vehicle was either 10% (w/v) Povidone K25 in water for PO dosing, or 18% (w/v) CrosPovidone in water for PO dosing, or 0.5% CMC-Na/0.1% Tween 80 in distilled water for PO dosing. The positive control gabapentin was dissolved in the vehicle and orally given at 100 mg/kg (by oral gavage). Test article was dissolved or suspended in the vehicle and orally given at 25, 50, 100 and 150 mg/kg. Each CCI-rat was administered a single oral dose of test article, gabapentin or vehicle control, 2 hours before assessment of PWT.

A short description of data set [2]: Competitive slurries of polymorphic forms. It counts as physicochemical. The conditions noted are these: competitive slurries in IPA, IPA and water, and acetone at ambient temperature and about 40° C.; all gave complete conversion to Form 2. How it is done:
The DSC of Form 2 has a single endotherm at about 160° C. Competitive slurries in IPA, IPA and water, and acetone at ambient temperature and about 40° C., all results in complete conversion to Form 2.

Data set [3] deals with SNL rats. Briefly: Spinal Nerve Ligation (SNL) mono-neuropathic pain model in rat, von Frey paw withdrawal threshold. It counts as in vivo. Conditions: oral gavage, dose-dependent. How it is done: Spinal Nerve Ligation (SNL) Mono-Neuropathic Pain Model in Rat. The surgical procedure will be performed according to the method firstly described by Kim and Chung (Kim S H, Chung J M. Pain. 1992; 50(3):355-63.). This procedure will result in tactile allodynia in the left hindpaw. […] The dose-response anti-allodynia effects of test compound: on day 14 after surgery, rats were treated with test article at one of four doses, vehicle or positive control by oral gavage, and PWT was determined by calibrated von Frey filaments at time points of 0 (right before the drug dosing, Pre-Dose Baseline), 0.5, 1, 2, 4 and 6 hr. The anti-allodynia effects of repeated administration of test article: Administration of test article was started on day 7 after surgery, once a day for 7 days. PWT was determined by calibrated von Frey filaments, 2 hour after test article dosing each day. After 7 days dosing, the measurement were continued, every other day without compound dosing for another 7 days. PWT was determined at the time points as given above.

Data set [4] concerns rat CFA-induced inflammatory pain. Briefly: Rat CFA-induced inflammatory pain model. It counts as in vivo. The conditions noted are these: oral dose, FIG. 15. How it is done: Rat CFA-Induced Inflammatory Pain Model. Hyperalgesia was induced by subcutaneously injecting […] of CFA (Sigma-Aldrich, St. Louis, Mo., USA) into the plantar surface of the left hind paw of the rats using a 30-gauge hypodermic needle under sevoflurane anesthesia. The classical signs of inflammation, including edema and redness, for up the last day of tests were recorded. To assess the effect of test article on CFA-induced inflammatory pain, the rats were anesthetized with sevoflurane 3 hours after CFA injection and then orally dosed with test article (n=6) or vehicle (n=6) or positive control. Paw withdrawal latencies (thermal hyperalgesia) are measured before and at 2 and 4 hours after CFA injection. Mechanical thresholds were also measured in the same way with either the compound of current invention (n=6) or vehicle (n=6) or positive control, Naproxen (n=6) at similar different time points (for example, 1 and 3 hour). The noxious heat and mechanical thresholds were separately measured in each group of rats. The threshold was measured 3-5 times in each rat and then averaged. Stimulus interval was 5 min.

Data set [5] has as its system anxiety disorders. Conditions: human clinical studies; cited from earlier work.
The nature of data set [6]: Solid form conversion on drying or during DSC. The conditions noted are these: drying at 80° C. or during a DSC experiment. It counts as physicochemical. How it is done:
Also, Form 5 can be possibly isostructural with Form 2 or Form 2′, or the differences between these forms may relate to the presence or absence of a particular amount of surface water.
Form 5 may convert to a different form (Form 2′) which has a similar X-ray pattern to Form 2 on drying (80° C.), as shown in Table below and FIG. 11 (XRPD), FIG. 12 (^1H-NMR), and FIG. 13 (DSC).

The structures appear in SMILES notation.

For `NCC1(CC(=O)O)CCCCC1` [gabapentin, reference compound], in data set [1] (CCI rats after single oral dose), the “drowsiness, motor incoordination or other abnormality observed” value is recorded as “drowsiness or motor incoordination”.
In the case of `Cc1nc2ccccn2c(=O)c1CCN1CCC(C(=O)c2ccc(F)cc2)CC1` [Form 2, 3-(2-{4-[(4-fluorophenyl)carbonyl]piperidin-1-yl}ethyl)-2-methyl-4H-pyrido[1,2-a]pyrimidin-4-one], in data set [2], the “thermodynamic stability of crystalline form” value is “most thermodynamically stable form”.
For the compound `Cc1nc2ccccn2c(=O)c1CCN1CCC(C(=O)c2ccc(F)cc2)CC1` [Compound 10, 3-(2-{4-[(4-fluorophenyl)carbonyl]piperidin-1-yl}ethyl)-2-methyl-4H-pyrido[1,2-a]pyrimidin-4-one], in data set [3], the “mechanical allodynia (paw withdrawal threshold)” value is on record as “significantly reduced mechanical allodynia”. Also, the “analgesic effect compared with positive control Naproxen” value in data set [4] is “more efficacious than positive control Naproxen”. In data set [5], the anti-anxiety effects entry was “did not show any dose-related anti-anxiety effects” and the safety in human entry is “safe in human”. The “potency relative to positive control gabapentin” value in data set [1] (CCI rats, oral, gabapentin 100 mg/kg) was “more than 100 time”. Moreover, in data set [1] (CCI rats, single oral dose 25, 50, 100 and 150 mg/kg, PWT 2 hours after dosing, dose-dependent, FIG. 14), the “mechanical allodynia (paw withdrawal threshold)” value was “significantly reduced mechanical allodynia”. In addition, the “drowsiness, motor incoordination or other abnormality observed” value in data set [1] (rat, in vivo, po) is reported as “no such effect or other abnormality was observed”.
Consider `Cc1nc2ccccn2c(=O)c1CCN1CCC(C(=O)c2ccc(F)cc2)CC1` [Form 5, 3-(2-{4-[(4-fluorophenyl)carbonyl]piperidin-1-yl}ethyl)-2-methyl-4H-pyrido[1,2-a]pyrimidin-4-one], for which the “solid form stability on drying” value in data set [6] was “can convert to a Form 2′ on drying”.
